In EPA's ToxRefDB 2:

Assays:
rabbit [1] = conditions: Prenatal developmental toxicity study, new zealand white, Oral, Gavage/Intubation, dose end: 18 GD, group: maternal
rabbit [2] = conditions: Prenatal developmental toxicity study, new zealand white, Oral, Gavage/Intubation, dose end: 18 GD, group: maternal; remark: listed apart in the source
mouse [3] = conditions: Combined chronic toxicity/carcinogenicity; cd1; Inhalation; Whole-Body; dose end: 18 month; group: systemic; systemic / pathology microscopic / nose / [other] + systemic / pathology microscopic / nose / degeneration + systemic / pathology …
mouse [4] = conditions: Sub-acute repeat dose toxicity, b6c3f1, Oral, Water, dose end: 14 day, group: systemic
rat [5] = conditions: Subchronic oral toxicity in rodents, fischer, Water, dose end: 13 week, group: systemic
mouse [6] = conditions: Subchronic oral toxicity in rodents, b6c3f1, Water, dose end: 13 week, group: systemic
rat [7] = conditions: Sub-acute repeat dose toxicity, fischer, Oral, Water, dose end: 14 day, group: systemic
rat [8] = conditions: Prenatal developmental toxicity study, sprague dawley, Oral, Gavage/Intubation, dose end: 15 GD, group: maternal
rat [9] = conditions: Neurotoxicity screening battery; sprague dawley; Oral; Gavage/Intubation; dose end: 13 week; group: cannot be grouped; systemic / hematology / [other] / [other] + systemic / hematology / heinz body / heinz body + systemic / hematology / leukocyte (wbc) count …
rat [10] = conditions: Multigenerational reproductive toxicity study, sprague dawley, Oral, Gavage/Intubation, dose end: 2 generation, group: parental
rat [11] = conditions: Combined chronic toxicity/carcinogenicity; fischer; Inhalation; Whole-Body; dose end: 26 month; group: systemic; systemic / pathology microscopic / spleen / congestion + systemic / pathology microscopic / eye / degeneration + systemic / pathology …
rat [12] = conditions: Prenatal developmental toxicity study, sprague dawley, Oral, Gavage/Intubation, dose end: 15 GD, group: maternal; remark: listed apart in the source
rat [13] = conditions: Combined chronic toxicity/carcinogenicity, sprague dawley, Oral, Feed, dose end: 2 year, group: systemic
rat [14] = conditions: Multigenerational reproductive toxicity study, Sprague Dawley, Oral, Feed, dose end: 2 generation
rat [15] = conditions: Subchronic oral toxicity in rodents, other, Feed, dose end: 13 week, group: systemic
dog = conditions: Combined chronic toxicity/carcinogenicity, beagle, Oral, Feed, dose end: 24 month, group: systemic
rabbit [16] = conditions: Prenatal developmental toxicity study, new zealand white, Inhalation, Whole-Body, dose end: 18 GD, group: maternal
rat [17] = conditions: Subchronic inhalation toxicity, fischer, Whole-Body, dose end: 13 week, group: systemic
rat [18] = conditions: Prenatal developmental toxicity study, sprague dawley, Inhalation, Whole-Body, dose end: 15 GD, group: maternal
[19] = reproductive / reproductive performance / aborted / aborted + reproductive / reproductive performance / resorptions / resorptions + systemic…
[20] = systemic / hematology / methemoglobin / methemoglobin + systemic / hematology / reticulocyte / reticulocyte
[21] = systemic / in life observation / body weight / body weight
[22] = systemic / in life observation / body weight / body weight + systemic / in life observation / water consumption / water consumption
[23] = systemic / hematology / erythrocyte (rbc) count differential / erythrocyte (rbc) + systemic / hematology / hematocrit (hct) / hematocrit (…
[24] = systemic / hematology / erythrocyte (rbc) count differential / erythrocyte (rbc) + systemic / hematology / hemoglobin (hgb) / hemoglobin (…
[25] = systemic / pathology microscopic / nose / degeneration + systemic / pathology microscopic / spleen / hematopoietic cell proliferation + …
[26] = systemic / in life observation / body weight / body weight + systemic / in life observation / water consumption / water consumption + …
[27] = systemic / hematology / methemoglobin / methemoglobin + systemic / hematology / reticulocyte / reticulocyte + systemic / in life observation…
[28] = systemic / pathology microscopic / liver / hematopoietic cell proliferation + systemic / pathology microscopic / liver / hemosiderosis + …
[29] = systemic / in life observation / body weight / body weight + systemic / in life observation / body weight / body weight gain + systemic / in…
[30] = systemic / pathology gross / spleen / enlarged
[31] = systemic / in life observation / body weight / body weight gain
[32] = group: offspring, systemic / in life observation / body weight / offspring (pup) weight + developmental / offspring survival late / [other] / [other] + …
[33] = group: parental, systemic / in life observation / body weight / body weight + systemic / organ weight / adrenal gland / absolute
[34] = systemic / pathology microscopic / kidney / cellular alteration + systemic / pathology microscopic / kidney / pigmentation
[35] = systemic / pathology microscopic / kidney / cellular alteration + systemic / pathology microscopic / kidney / pigmentation + systemic / …
[36] = systemic / in life observation / body weight / body weight gain + systemic / in life observation / clinical signs / oral discharge + …
[37] = systemic / in life observation / food consumption / food consumption
[38] = systemic / organ weight / adrenal gland / absolute + systemic / organ weight / adrenal gland / relative to body weight + systemic / organ …
[39] = systemic / in life observation / body weight / body weight gain + systemic / in life observation / clinical signs / red or crusty deposits …

SMILES: CCC(C)=NO [2-Butanone oxime]
- LOAEL (rabbit [1]; [19]): > 40 mg/kg/day
- NEL (rabbit [1]; [19]): 14 mg/kg/day
- NOAEL (rabbit [1]; [19]): ≥ 40 mg/kg/day
- LEL (rabbit [1]; systemic / in life observation / body weight / body weight gain + systemic / in life observation / food consumption / food consumption): 24 mg/kg/day
- LOAEL (rabbit [2]; [19]): > 80 mg/kg/day
- NOAEL (rabbit [2]; [19]): ≥ 80 mg/kg/day
- LEL (rabbit [2]; [20]): 10 mg/kg/day
- NEL (rabbit [2]; [20]): < 10 mg/kg/day
- LEL (mouse [3]): 15 ppm
- LOAEL (mouse [3]): > 375 ppm
- NEL (mouse [3]): < 15 ppm
- NOAEL (mouse [3]): ≥ 375 ppm
- LOAEL (mouse [4]; [21]): 475 mg/kg/day
- LEL (mouse [4]; [22]): 475 mg/kg/day
- NEL (mouse [4]; [22]): 300 mg/kg/day
- NOAEL (mouse [4]; [22]): 300 mg/kg/day
- LOAEL (rat [5]; [23]): 50 mg/kg/day
- NOAEL (rat [5]; [23]): 25 mg/kg/day
- LEL (rat [5]; [24]): 25 mg/kg/day
- NEL (rat [5]; [24]): < 25 mg/kg/day
- LOAEL (mouse [6]; systemic / pathology microscopic / nose / degeneration + systemic / pathology microscopic / spleen / hematopoietic cell proliferation): 755 mg/kg/day
- NEL (mouse [6]; [25]): 110 mg/kg/day
- NOAEL (mouse [6]; [25]): 515 mg/kg/day
- LEL (mouse [6]; systemic / pathology microscopic / urinary bladder / hyperplasia): 200 mg/kg/day
- LOAEL (rat [7]; [21]): 280 mg/kg/day
- NEL (rat [7]; [26]): 70 mg/kg/day
- NOAEL (rat [7]; [26]): 130 mg/kg/day
- LEL (rat [7]; systemic / in life observation / water consumption / water consumption + systemic / organ weight / spleen / absolute + systemic / organ …): 130 mg/kg/day
- LEL (rat [8]; [20]): 25 mg/kg/day
- NEL (rat [8]; [20]): < 25 mg/kg/day
- LOAEL (rat [8]; [27]): > 400 mg/kg/day
- NOAEL (rat [8]; [27]): ≥ 400 mg/kg/day
- LEL (rat [9]): 40 mg/kg/day
- LOAEL (rat [9]): > 400 mg/kg/day
- NEL (rat [9]): < 40 mg/kg/day
- NOAEL (rat [9]): ≥ 400 mg/kg/day
- LOAEL (rat [10]; [23]): > 200 mg/kg/day
- NOAEL (rat [10]; [23]): ≥ 200 mg/kg/day
- LEL (rat [10]; [28]): 10 mg/kg/day
- NEL (rat [10]; [28]): < 10 mg/kg/day
- LEL (rat [11]): 15 ppm
- LOAEL (rat [11]): > 375 ppm
- NEL (rat [11]): < 15 ppm
- NOAEL (rat [11]): ≥ 375 ppm
- LOAEL (rat [12]; [29]): > 600 mg/kg/day
- NOAEL (rat [12]; [29]): ≥ 600 mg/kg/day
- LEL (rat [12]; [30]): 60 mg/kg/day
- NEL (rat [12]; [30]): < 60 mg/kg/day

SMILES: CNC(=O)ON=C(C)SC [Methomyl]
- NEL (rat [13]; [23]): 5 mg/kg/day
- LOAEL (rat [13]; [31]): 20 mg/kg/day
- NOAEL (rat [13]; [31]): 5 mg/kg/day
- LEL (rat [13]; systemic / in life observation / body weight / body weight gain + systemic / hematology / erythrocyte (rbc) count differential / erythrocyte…): 20 mg/kg/day
- LOAEL (rat [14]; group: offspring, systemic / in life observation / body weight / offspring (pup) weight + developmental / offspring survival late / [other] / [other]): 56.5 mg/kg/day
- LEL (rat [14]; [32]): 6.9 mg/kg/day
- NEL (rat [14]; [32]): < 6.9 mg/kg/day
- NOAEL (rat [14]; group: offspring, systemic / in life observation / body weight / offspring (pup) weight + developmental / offspring survival late / lactation index / …): 6.9 mg/kg/day
- LOAEL (rat [14]; group: parental, systemic / in life observation / body weight / body weight + systemic / in life observation / food consumption / food consumption): 36.9 mg/kg/day
- NOAEL (rat [14]; group: parental, systemic / in life observation / body weight / body weight + systemic / in life observation / food consumption / food consumption + systemic…): 4.6 mg/kg/day
- LEL (rat [14]; [33]): 6.9 mg/kg/day
- NEL (rat [14]; [33]): < 6.9 mg/kg/day
- NEL (rat [15]; [31]): 2.5 mg/kg/day
- NOAEL (rat [15]; [31]): 2.5 mg/kg/day
- LOAEL (rat [15]; systemic / in life observation / body weight / body weight gain + systemic / pathology microscopic / bone marrow / hyperplasia): 12.5 mg/kg/day
- LEL (rat [15]; systemic / in life observation / body weight / body weight gain + systemic / pathology microscopic / bone marrow / hyperplasia + systemic / …): 12.5 mg/kg/day
- LEL (dog; [34]): 10 mg/kg/day
- LOAEL (dog; [34]): 10 mg/kg/day
- NEL (dog; [35]): 2.5 mg/kg/day
- NOAEL (dog; [35]): 2.5 mg/kg/day

SMILES: CC(C)c1ccccc1 [Cumene]
- LOAEL (rabbit [16]; [36]): > 2300 ppm
- NOAEL (rabbit [16]; [36]): ≥ 2300 ppm
- LEL (rabbit [16]; [37]): 500 ppm
- NEL (rabbit [16]; [37]): < 500 ppm
- NEL (rat [17]; systemic / in life observation / clinical signs / body temperature + systemic / in life observation / clinical signs / motor activity): 100 ppm
- LEL (rat [17]; systemic / in life observation / clinical signs / motor activity + systemic / clinical chemistry / glucose / glucose + systemic / hematology…): 500 ppm
- LOAEL (rat [17]; [38]): > 1200 ppm
- NOAEL (rat [17]; [38]): ≥ 1200 ppm
- LOAEL (rat [18]; [39]): > 1200 ppm
- NEL (rat [18]; [39]): 100 ppm
- NOAEL (rat [18]; [39]): ≥ 1200 ppm
- LEL (rat [18]; [37]): 500 ppm
